Assay results: patent US20220175693A1, “DIETARY SUPPLEMENT COMPRISING LUTEIN FOR TELOMERE PROTECTION, AND METHOD FOR PRODUCTION THEREOF” (BIOGEN EXTRACTS PRIVATE LIMITED, priority 2019, published 2022)

System: human adult primary fibroblast cells
Assay: Proliferative analysis (population doubling, cell counts per passage) under standard and oxidative stress conditions
Assay type: cell-based
Protocol: Analysis of cellular proliferation rate and telomere length in cultures of human adult primary fibroblast cells treated with lutein under standard and oxidative stress conditions. Primary cultures of adult human fibroblast were established. Cells are seeded at 2×10^3 cells/cm2 in GlutaMax™ high glucose Dulbecco's modified Eagle's medium (DMEM, Gibco®), and supplemented with 10% fetal bovine serum (FBS, HyClone, Thermo Scientific), penicillin (100 U/ml) and reptomycin (1000 U/ml). Media is renewed every 2-3 days and cells passaged at sub-confluence (70-80%) every 4-5 days. Compounds or vehicle control are added to the cells in culture. Cell growth is monitored for each condition by counting cell numbers at each passage using a Countess™ cell counter (Invitrogen). Population doubling (PD) was calculated with the formula PD=(log (Nn/Nn-1))/log 2 where n is the passage; and N the number of cells. One PD is equivalent to one round of cell replication. Eight independent condition were evaluated by proliferative Analysis: Standard cell culture condition+Lutein−10 μg/ml (LUT10) Standard cell culture condition+Lutein−5 μg/ml (LUT5) Standard cell culture condition+Lutein−1 μg/ml (LUT1) Standard cell culture condition+Lutein−10 μg/ml+10 μM H2O2 (LUT10+H2O2) Standard cell culture condition+Lutein−5 μg/ml+10 μM H2O2(LUT5+H2O2) Standard cell culture condition+Lutein−1 μg/ml+10 μM H2O2 (LUT1+H2O2) Cells were expanded during eight weeks under standard and oxidative (10 μM H2O2) cell culture condition as described previously. Fresh treatments were prepared and added to the cells at every passage and also when media was renewed. Stock solution of 10 mg/ml of the compound was prepared in DMSO and the different treatments were prepared from that stock.

[1] = Lutein 1 μg/ml + 10 μM H2O2, week 1 (P1)
[2] = Lutein 1 μg/ml + 10 μM H2O2, week 2 (P2)
[3] = Lutein 1 μg/ml + 10 μM H2O2, week 3 (P3)
[4] = Lutein 1 μg/ml + 10 μM H2O2, week 4 (P4)
[5] = Lutein 1 μg/ml + 10 μM H2O2, week 5 (P5)
[6] = Lutein 1 μg/ml + 10 μM H2O2, week 6 (P6)
[7] = Lutein 1 μg/ml + 10 μM H2O2, week 7 (P7)
[8] = Lutein 1 μg/ml + 10 μM H2O2, week 8 (P8)
[9] = Lutein 1 μg/ml, standard culture, week 1 (P1)
[10] = Lutein 1 μg/ml, standard culture, week 2 (P2)
[11] = Lutein 1 μg/ml, standard culture, week 3 (P3)
[12] = Lutein 1 μg/ml, standard culture, week 4 (P4)
[13] = Lutein 1 μg/ml, standard culture, week 5 (P5)
[14] = Lutein 1 μg/ml, standard culture, week 6 (P6)
[15] = Lutein 1 μg/ml, standard culture, week 7 (P7)
[16] = Lutein 1 μg/ml, standard culture, week 8 (P8)
[17] = Lutein 5 μg/ml + 10 μM H2O2, week 1 (P1)
[18] = Lutein 5 μg/ml + 10 μM H2O2, week 2 (P2)
[19] = Lutein 5 μg/ml + 10 μM H2O2, week 3 (P3)
[20] = Lutein 5 μg/ml + 10 μM H2O2, week 4 (P4)
[21] = Lutein 5 μg/ml + 10 μM H2O2, week 5 (P5)
[22] = Lutein 5 μg/ml + 10 μM H2O2, week 6 (P6)
[23] = Lutein 5 μg/ml + 10 μM H2O2, week 7 (P7)
[24] = Lutein 5 μg/ml + 10 μM H2O2, week 8 (P8)

CC1=C[C@H](O)CC(C)(C)[C@H]1/C=C/C(C)=C/C=C/C(C)=C/C=C/C=C(C)/C=C/C=C(C)/C=C/C1=C(C)C[C@@H](O)CC1(C)C [Lutein]
Cumulative Population Doubling per passage [1]: 3.42
Population Doubling per passage [1]: 3.42
Total number of cells per passage [1]: 1.60E+06
Cumulative Population Doubling per passage [2]: 6.29
Population Doubling per passage [2]: 2.87
Total number of cells per passage [2]: 1.17E+07
Cumulative Population Doubling per passage [3]: 9.16
Population Doubling per passage [3]: 2.37
Total number of cells per passage [3]: 8.60E+07
Cumulative Population Doubling (Table 7A) (Lutein 1 μg/ml + 10 μM H2O2, week 4): 12.3
Cumulative Population Doubling per passage [4]: 12.28
Population Doubling per passage [4]: 3.12
Total number of cells per passage [4]: 7.46E+08
Cumulative Population Doubling per passage [5]: 14.76
Population Doubling per passage [5]: 2.49
Total number of cells per passage [5]: 4.18E+09
Cumulative Population Doubling per passage [6]: 17.41
Population Doubling per passage [6]: 2.65
Total number of cells per passage [6]: 2.62E+10
Cumulative Population Doubling per passage [7]: 18.41
Population Doubling per passage [7]: 1.00
Total number of cells per passage [7]: 5.23E+10
Cumulative Population Doubling (Table 7A) (Lutein 1 μg/ml + 10 μM H2O2, week 8): 20.7
Cumulative Population Doubling per passage [8]: 20.72
Population Doubling per passage [8]: 2.30
Total number of cells per passage [8]: 2.58E+11
Cumulative Population Doubling per passage [9]: 3.81
Population Doubling per passage [9]: 3.81
Total number of cells per passage [9]: 2.10E+06
Cumulative Population Doubling per passage [10]: 7.31
Population Doubling per passage [10]: 3.50
Total number of cells per passage [10]: 2.38E+07
Cumulative Population Doubling per passage [11]: 10.18
Population Doubling per passage [11]: 3.57
Total number of cells per passage [11]: 1.75E+08
Cumulative Population Doubling (Table 7A) (Lutein 1 μg/ml, standard culture, week 4): 13.7
Cumulative Population Doubling per passage [12]: 13.69
Population Doubling per passage [12]: 3.50
Total number of cells per passage [12]: 1.98E+09
Cumulative Population Doubling per passage [13]: 15.71
Population Doubling per passage [13]: 2.02
Total number of cells per passage [13]: 8.04E+09
Cumulative Population Doubling per passage [14]: 18.71
Population Doubling per passage [14]: 3.00
Total number of cells per passage [14]: 6.44E+10
Cumulative Population Doubling per passage [15]: 21.39
Population Doubling per passage [15]: 2.68
Total number of cells per passage [15]: 4.12E+11
Cumulative Population Doubling (Table 7A) (Lutein 1 μg/ml, standard culture, week 8): 24.1
Cumulative Population Doubling per passage [16]: 24.13
Population Doubling per passage [16]: 2.74
Total number of cells per passage [16]: 2.75E+12
Cumulative Population Doubling per passage [17]: 3.58
Population Doubling per passage [17]: 3.58
Total number of cells per passage [17]: 1.80E+06
Cumulative Population Doubling per passage [18]: 6.91
Population Doubling per passage [18]: 3.32
Total number of cells per passage [18]: 1.80E+07
Cumulative Population Doubling per passage [19]: 10.13
Population Doubling per passage [19]: 3.22
Total number of cells per passage [19]: 1.68E+08
Cumulative Population Doubling (Table 7A) (Lutein 5 μg/ml + 10 μM H2O2, week 4): 13.5
Cumulative Population Doubling per passage [20]: 13.54
Population Doubling per passage [20]: 3.42
Total number of cells per passage [20]: 1.79E+09
Cumulative Population Doubling per passage [21]: 15.70
Population Doubling per passage [21]: 2.16
Total number of cells per passage [21]: 8.00E+09
Cumulative Population Doubling per passage [22]: 17.84
Population Doubling per passage [22]: 2.14
Total number of cells per passage [22]: 3.52E+10
Cumulative Population Doubling per passage [23]: 20.71
Population Doubling per passage [23]: 2.87
Total number of cells per passage [23]: 2.58E+11
Cumulative Population Doubling (Table 7A) (Lutein 5 μg/ml + 10 μM H2O2, week 8): 23.1
Cumulative Population Doubling per passage [24]: 23.06
Population Doubling per passage [24]: 2.34
Total number of cells per passage [24]: 1.31E+12
Cumulative Population Doubling per passage (Lutein 5 μg/ml, standard culture, week 1 (P1)): 3.81
